Patent publication US8478395B2, “Method of measuring electrical resistance value of corneal trans-epithelium” (Nagasaki University, priority 2008, dated 2013)

Experiments:
[1] = tested on: cornea of a living rabbit; experiment: Living corneal TER measurement requiring no anterior chamber centesis (conjunctival sac method); assay type: in vivo; conditions: 0.02% BAC
Protocol: Evaluation of Corneal Disorder Due to BAC by Living Corneal TER Measurement Requiring No Anterior Chamber Centesis (Referred to as Conjunctival Sac Method) (FIG. 1)
Silver-silver chloride electrode having a rod shape was placed on a cornea and into a conjunctival sac of a living rabbit, and a 0.02% BAC was administered thereto. A change in the corneal TER due to exposure to BAC was measured by a voltage-electric resistance value measuring device. A rubber ring (6 mm in the inner diameter) was fixed onto the cornea around the periphery of the electrode by using a bioadhesive (Aron alpha A from Sankyo Co., Ltd.) for insulation, so that an electric current is surely passed through the epithelium of the cornea. An AC current of ±20 μA was flowed, and a change curve of TER, a reduction of TER and a TER value after a lapse of 60 seconds from the exposure to 0.02% BAC, were compared with those from the conventional measuring method in which the anterior chamber centesis was carried out (comparative example 1). The TER value was calculated by subtracting an electric resistance value between the anterior chamber and the conjunctival sac obtained in a preliminary experiment from the measured value.

[2] = tested on: cornea of a living rabbit; experiment: Corneal TER measurement with the integrated TER measuring device of FIG. 6; assay type: in vivo, Japanese white rabbit; conditions: 0.02% BAC dropped onto the eye, one minute after the administration, device of FIG. 6, n=3
Source text: A silver electrode and a silver-silver chloride electrode having a diameter of 1 mm were placed on a round cover glass having a diameter of 12 mm. PDMS having a circular cylinder shape with 10 mm in diameter and 6 mm in inner diameter and having a curvature radius of the corneal contact surface of 7.9 mm was secured onto the cover glass by using an adhesive. An Eppendorf tube was attached to a rear side (on the side opposite to the corneal contact surface (cover glass side)) for mount onto a slit-lamp. The inner space of the PDMS was filled with an atelocollagen gel and its curvature radius was adjusted to 7.9 mm.
A silver electrode and a silver chloride electrode having a diameter of 1 mm were placed on a PET sheet of 0.005×0.5×1 cm, at position of 1 mm from the distal end of the sheet on the eyeball side. The PET sheet, the silver electrode and the silver chloride electrode were thinly coated with a collagen gel. […]
By using thus prepared TER measuring device, a change in the corneal TER of a living rabbit was measured. […]
A 0.02% BAC was dropped onto the eye of the rabbit, and the resulting TER value was compared with the TER value before the administration. […] Prior to the BAC administration (indicated as “normal cornea” in FIG. 7) as well as after the BAC administration, within one second after the device was contacted with the cornea, a stable TER value could be measured.

cornea of a rabbit = experiment: Living corneal TER measurement using anterior chamber centesis (anterior chamber centesis method); assay type: in vivo; conditions: 0.02% BAC
Protocol: Evaluation of Corneal Disorder Due to BAC by Living Corneal TER Measurement Using Anterior Chamber Centesis (Referred to as “Anterior Chamber Centesis Method”)
In accordance with the method described in non-Patent Document 4 supra, electrodes were placed on a cornea and into an anterior chamber of a rabbit, and after administration of 0.02% BAC, a corneal TER was measured.

Substance: benzalkonium chloride [BAC]
- TER value ([1]; after a lapse of 60 seconds): 175±14 Ωcm^2
- TER (TER before the administration of the BAC set to 100%) ([1]; after a lapse of 60 seconds, p<0.01): 13.5±2.1%
- TER (TER before the administration of the BAC set to 100%) ([1]; ten seconds after the administration): 35.1±6.8%
- Change of TER compared with the TER value before the administration [2]: significantly reduced
- TER (TER before the administration of the BAC set to 100%) (cornea of a rabbit; 60 seconds after the administration): 19.7±5.9%
- TER value (cornea of a rabbit; after a lapse of 60 seconds): 138±10 Ωcm^2
